Test results taken from PubChem BioAssay (NCI).
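Interpolation was linear, between the two tested concentrations surrounding the appropriate level; five concentrations were tested over 48 hours in 96-well plates. At the TGI there is no net growth.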

How the values were obtained:
Experiment in all cases: NCI anticancer screen, dose series, 48 h
786-0 renal = test system: 786-0 renal
A549 NSCLC = test system: A549 NSCLC
CAKI-1 renal = test system: CAKI-1 renal
CCRF-CEM leukemia = test system: CCRF-CEM leukemia
DU-145 prostate = test system: DU-145 prostate
EKVX NSCLC = test system: EKVX NSCLC
HCC-2998 colon = test system: HCC-2998 colon
HCT-15 colon = test system: HCT-15 colon
HL-60(TB) leukemia = test system: HL-60(TB) leukemia
HOP-62 NSCLC = test system: HOP-62 NSCLC
HT29 colon = test system: HT29 colon
IGROV1 ovarian = test system: IGROV1 ovarian
K-562 leukemia = test system: K-562 leukemia
KM12 colon = test system: KM12 colon
LOX IMVI melanoma = test system: LOX IMVI melanoma
M14 melanoma = test system: M14 melanoma
MALME-3M melanoma = test system: MALME-3M melanoma
MCF7 breast = test system: MCF7 breast
MDA-MB-231 breast = test system: MDA-MB-231 breast
MDA-N = test system: MDA-N
MOLT-4 leukemia = test system: MOLT-4 leukemia
NCI-H23 lung = test system: NCI-H23 lung
OVCAR-8 ovarian = test system: OVCAR-8 ovarian
PC-3 prostate = test system: PC-3 prostate
RPMI-8226 leukemia = test system: RPMI-8226 leukemia
RXF 393 renal = test system: RXF 393 renal
SF-268 CNS = test system: SF-268 CNS
SF-295 CNS = test system: SF-295 CNS
SK-MEL-28 melanoma = test system: SK-MEL-28 melanoma
SK-MEL-5 melanoma = test system: SK-MEL-5 melanoma
SK-OV-3 ovarian = test system: SK-OV-3 ovarian
SN12C renal = test system: SN12C renal
SNB-75 CNS = test system: SNB-75 CNS
SR leukemia = test system: SR leukemia
SW-620 colon = test system: SW-620 colon
T-47D breast = test system: T-47D breast
TK-10 renal = test system: TK-10 renal
UACC-257 melanoma = test system: UACC-257 melanoma
UACC-62 melanoma = test system: UACC-62 melanoma
COLO 205 colon = test system: COLO 205 colon

| SMILES | TGI (786-0 renal) | TGI (A549 NSCLC) | TGI (CAKI-1 renal) | TGI (CCRF-CEM leukemia) | TGI (DU-145 prostate) | TGI (EKVX NSCLC) | TGI (HCC-2998 colon) | TGI (HCT-15 colon) | TGI (HL-60(TB) leukemia) | TGI (HOP-62 NSCLC) | TGI (HT29 colon) | TGI (IGROV1 ovarian) | TGI (K-562 leukemia) | TGI (KM12 colon) | TGI (M14 melanoma) | TGI (MALME-3M melanoma) | TGI (MCF7 breast) | TGI (MDA-MB-231 breast) | TGI (MDA-N) | TGI (MOLT-4 leukemia) | further results |
| --- | --- | --- | --- | --- | --- | --- | --- | --- | --- | --- | --- | --- | --- | --- | --- | --- | --- | --- | --- | --- | --- |
| CC(C)(Oc1ccc2c(=O)cc(-c3ccccc3)oc2c1)C(=O)N1CCN(c2ccccc2)CC1 | > 10 µM | > 10 µM | > 10 µM | > 10 µM | > 10 µM | > 10 µM | > 10 µM | > 10 µM | 4.38 µM | > 10 µM | > 10 µM | > 10 µM | > 10 µM | > 10 µM | > 10 µM | > 10 µM | > 10 µM | > 10 µM | > 10 µM | > 10 µM | TGI (LOX IMVI melanoma): > 10 µM; TGI (NCI-H23 lung): > 10 µM; TGI (OVCAR-8 ovarian): > 10 µM; TGI (PC-3 prostate): > 10 µM; TGI (RPMI-8226 leukemia): > 10 µM; TGI (RXF 393 renal): 6.73 µM; TGI (SF-268 CNS): > 10 µM; TGI (SF-295 CNS): > 10 µM; TGI (SK-MEL-28 melanoma): > 10 µM; TGI (SK-MEL-5 melanoma): > 10 µM; TGI (SK-OV-3 ovarian): > 10 µM; TGI (SN12C renal): > 10 µM; TGI (SNB-75 CNS): > 10 µM; TGI (SR leukemia): > 10 µM; TGI (SW-620 colon): > 10 µM; TGI (T-47D breast): > 10 µM; TGI (TK-10 renal): > 10 µM; TGI (UACC-257 melanoma): > 10 µM; TGI (UACC-62 melanoma): > 10 µM |
| C1=C(c2ccccc2)O[C@H](COCc2ccccc2)C(OCc2ccccc2)[C@@H]1OCc1ccccc1 (stereo partly drawn) | > 10 µM | > 10 µM | > 10 µM | > 10 µM | > 10 µM | > 10 µM | > 10 µM | > 10 µM | > 10 µM | > 10 µM | > 10 µM | > 10 µM | > 10 µM | > 10 µM | > 10 µM | > 10 µM | > 10 µM | > 10 µM | > 10 µM | > 10 µM | TGI (COLO 205 colon): > 10 µM; TGI (NCI-H23 lung): > 10 µM; TGI (OVCAR-8 ovarian): > 10 µM; TGI (PC-3 prostate): > 10 µM; TGI (RPMI-8226 leukemia): > 10 µM; TGI (RXF 393 renal): > 10 µM; TGI (SF-268 CNS): > 10 µM; TGI (SF-295 CNS): > 10 µM; TGI (SK-MEL-28 melanoma): > 10 µM; TGI (SK-MEL-5 melanoma): > 10 µM; TGI (SK-OV-3 ovarian): > 10 µM; TGI (SN12C renal): > 10 µM; TGI (SNB-75 CNS): > 10 µM; TGI (SR leukemia): > 10 µM; TGI (SW-620 colon): > 10 µM; TGI (T-47D breast): > 10 µM; TGI (TK-10 renal): > 10 µM; TGI (UACC-257 melanoma): > 10 µM; TGI (UACC-62 melanoma): > 10 µM |
